The values that follow come from ChEMBL document CHEMBL1201862, “PubChem BioAssay data set” (2004).

Structures are written as SMILES.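 The compound was tested at five concentrations on cells cultured in 96-well plates, with a 48-hour exposure period. Here, GI50 denotes the concentration required for 50% inhibition of growth.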 Activity calls are given as the source filed them. Cut-off read from the data, not from the text of the source: active = GI50 up to about 1.1 µM and inactive = higher.

Holding throughout (assay): NCI anticancer screen, dose series, 48 h
Test [1] deals with COLO 205.
Test [2] relates to HOP-92.
The subject of test [3] is HT-29.
Test [4] deals with IGROV-1.
The subject of test [5] is K562.
The subject of test [6] is MOLT-4.
The subject of test [7] is Malme-3M.
The subject of test [8] is NCI-H460.
In test [9] the test system is OVCAR-3.
Test [10] deals with OVCAR-4.
For test [11], the system named is OVCAR-5.
Test [12] deals with RPMI-8226.
Test [13] concerns RXF 393.
The test system of test [14] is SK-MEL-2.
Test [15] deals with SK-OV-3.
The subject of test [16] is SN12C.
For test [17], the system named is SNB-19.
For test [18], the system named is SNB-75.
Test [19] concerns U-251.

For `CC(C)C(Nc1c2ccccc2nc2ccccc12)C(=O)O` (centres undefined), the GI50 in [1] was 70.1 µM (inactive); in [2], 29.2 µM (inactive); in [3] it was 59.7 µM (inactive); in [4], > 100 µM (inactive); in test [5], > 100 µM (inactive); in test [6], 38.7 µM (inactive). Also, the GI50 is > 100 µM (inactive) in test [7]; 65.5 µM (inactive) in test [8]; 94.2 µM (inactive) in test [9]; 20.7 µM (inactive) in test [10]; > 100 µM (inactive) in [11]; 32.5 µM (inactive) in test [12]. Moreover, the GI50 in test [13], in [14], in [15], in test [16], in [17] and in test [18] was > 100 µM (inactive) throughout. The GI50 in test [19] is > 100 µM (inactive).

Regarding `O=[N+]([O-])C(C(Cl)=C(Cl)Cl)=C(N1CCOCC1)N1CCOCC1`, the GI50 in [1] is > 100 µM (inactive); in test [3] it was > 100 µM (inactive); in test [4], > 100 µM (inactive); in [5], > 100 µM (inactive); in test [6], 63.2 µM (inactive); in [7], 57.3 µM (inactive). For the same compound, the GI50 in test [9], in [10], in test [11], in test [12], in [13] and in test [14] was > 100 µM (inactive) each time. For the same compound, the GI50 in test [15] was > 100 µM (inactive); in test [16], > 100 µM (inactive); in test [17], > 100 µM (inactive); in [18], 1.14 µM (inactive); in [19], > 100 µM (inactive).

For `CN1C(=O)C(Cl)(C(Cl)(Cl)S(=O)(=O)O)C(=O)c2ccccc21.c1ccncc1` (centres undefined), the GI50 in test [1] is > 100 µM (inactive); in [2] it was > 100 µM (inactive); in test [3] it was 25.7 µM (inactive); in test [4], > 100 µM (inactive); in test [5], > 100 µM (inactive); in test [6], > 100 µM (inactive). Further, the GI50 is 33.2 µM (inactive) in test [7]; > 100 µM (inactive) in test [8]; > 100 µM (inactive) in test [9]; > 100 µM (inactive) in test [10]; > 100 µM (inactive) in [12]; 53.7 µM (inactive) in test [13]. The GI50 in test [15] is > 100 µM (inactive); in test [16], > 100 µM (inactive); in test [17], > 100 µM (inactive); in test [18], 54.2 µM (inactive); in [19], > 100 µM (inactive).

In the case of `CC1(C)OC([C@H](O)CO)C([C@H]2NCCS2)O1` (some centres undefined), the GI50 in test [1], in test [2], in [3], in [4], in test [5] and in test [6] was > 100 µM (inactive) in each case. Also, the GI50 in [7], in test [8], in [9], in test [10], in test [11] and in test [12] was > 100 µM (inactive) in each case. Further, the GI50 in [13], in test [14], in test [15], in test [17], in [18] and in test [19] was > 100 µM (inactive) throughout.

Take `CCN(CC)c1ccc2c(c1)N=C1N=CC=CN1C2(c1ccc(N(C)C)cc1)c1ccc(N(C)C)cc1`: the GI50 in [1] is 2.36 µM (inactive); in [2], 2.82 µM (inactive); in [3], 3.12 µM (inactive); in test [4] it was 10.4 µM (inactive); in [5], 2.3 µM (inactive); in test [6], 2.47 µM (inactive). Also, the GI50 is 12.7 µM (inactive) in test [7]; 5.62 µM (inactive) in [8]; 3.16 µM (inactive) in [9]; 13.3 µM (inactive) in test [11]; 2.9 µM (inactive) in [12]; 8.57 µM (inactive) in test [13]. For the same compound, the GI50 is 12.6 µM (inactive) in test [14]; 2.61 µM (inactive) in [15]; 5.27 µM (inactive) in test [16]; 11.4 µM (inactive) in [17]; 11.6 µM (inactive) in test [18]; 4.32 µM (inactive) in test [19].

As for `COC(=O)C1=C(c2ccc(OC)c(OC)c2)OC(c2ccc(OC)c(OC)c2)C1` (centres undefined), the GI50 in test [1] was 17.1 µM (inactive); in test [2] it was 13.8 µM (inactive); in [3], 22.3 µM (inactive); in test [4], 25.1 µM (inactive); in [5] it was 32.1 µM (inactive); in test [6], 8.17 µM (inactive). Besides, the GI50 in [7] was 30 µM (inactive); in test [8] it was 41 µM (inactive); in [9], 33.9 µM (inactive); in test [10], 27.9 µM (inactive); in [11], 32.6 µM (inactive); in [12], 37.6 µM (inactive). The GI50 in test [13] is 25.6 µM (inactive); in test [14], 57.9 µM (inactive); in [15], 32.6 µM (inactive); in test [16] it was 27.9 µM (inactive); in test [18], 41.4 µM (inactive); in test [19], 36.1 µM (inactive).

As for `CCC12CCCN(Cc3ccccc3)C1c1c(n(C)c3ccccc13)C(C(=O)OC)C2` (centres undefined), the GI50 in test [1] is 107 µM (inactive); in [2], 79.8 µM (inactive); in [3] it was 73.1 µM (inactive); in test [4] it was 146 µM (inactive); in test [5] it was 93.5 µM (inactive); in test [6] it was 74.3 µM (inactive). The GI50 in [7] was > 239 µM (inactive); in test [8], 117 µM (inactive); in test [9], 53.7 µM (inactive); in [11], 78.2 µM (inactive); in [12], 82.4 µM (inactive); in [13], 128 µM (inactive). In addition, the GI50 was > 239 µM (inactive) in test [14]; 236 µM (inactive) in [15]; 84.1 µM (inactive) in test [16]; 72.9 µM (inactive) in [17]; 117 µM (inactive) in [19].

`C[C@H](OCc1ccccc1)C(=O)N1CCS(=O)(=O)N2CCC[C@H]2C1=O`: the GI50 in [1], in [2], in [3], in test [4], in test [5] and in test [6] was > 100 µM (inactive) each time. Also, the GI50 in [7], in test [8], in test [9], in test [10], in test [11] and in test [12] was > 100 µM (inactive) throughout. Also, the GI50 in test [13], in test [15], in [16], in [17], in [18] and in [19] was > 100 µM (inactive) throughout.

Regarding `Cc1cc(O)nc(NNC(C#N)c2ccccc2O)n1` (centres undefined), the GI50 is 31 µM (inactive) in test [1]; 75.5 µM (inactive) in test [2]; 30.2 µM (inactive) in test [3]; 21 µM (inactive) in test [4]; 41.7 µM (inactive) in test [5]; 24.6 µM (inactive) in test [6]. For the same compound, the GI50 was 35.7 µM (inactive) in test [7]; 10.5 µM (inactive) in test [8]; 10.8 µM (inactive) in test [9]; 15.5 µM (inactive) in test [10]; 58.6 µM (inactive) in test [11]; 22 µM (inactive) in test [12]. The GI50 in test [13] was > 100 µM (inactive); in test [14], 66.8 µM (inactive); in test [15], 39.4 µM (inactive); in test [16] it was 73.6 µM (inactive); in [18] it was 31.5 µM (inactive); in test [19] it was 15.2 µM (inactive).

Regarding `CCOc1ccc(/C=C\c2cc(OC)c(OC)c(OC)c2)cc1`, the GI50 in test [1] was 0.0127 µM (active); in [2] it was 0.000828 µM (active); in [3] it was 0.000131 µM (active); in test [4], 0.2 µM (active); in test [5] it was < 0.0001 µM (active); in [6], 0.000634 µM (active). Besides, the GI50 in test [7] was 0.00139 µM (active); in test [8], 0.000674 µM (active); in test [9] it was 0.000303 µM (active); in test [10], 0.114 µM (active); in test [11], 22.1 µM (inactive); in [12], 0.000443 µM (active). In addition, the GI50 was < 0.0001 µM (active) in test [13]; 0.00378 µM (active) in test [14]; 0.00129 µM (active) in test [16]; 0.000165 µM (active) in test [17]; < 0.0001 µM (active) in test [18]; 0.000172 µM (active) in test [19].

Consider `CC[C@H](C)C(=O)O[C@H]1C[C@@H](C)C=C2C=C[C@H](C)[C@H](CC[C@@H]3C[C@@H](O)CC(=O)O3)[C@H]21` [LOVASTATIN], for which the GI50 was 5.73 µM (inactive) in test [1]; 0.0308 µM (active) in test [2]; 11.6 µM (inactive) in [3]; 5.96 µM (inactive) in test [4]; 19.5 µM (inactive) in test [5]; 26.8 µM (inactive) in test [6]. Besides, the GI50 in test [7] was > 30 µM (inactive); in [8], 18 µM (inactive); in [9] it was > 30 µM (inactive); in [10], > 30 µM (inactive); in test [11], > 30 µM (inactive); in test [12], > 30 µM (inactive). Besides, the GI50 in test [13] was 2.52 µM (inactive); in test [14] it was 13.2 µM (inactive); in test [15], 11.8 µM (inactive); in test [16], 1.71 µM (inactive).
